Laboratory results from the NIST ThermoML archive (doi:10.1016/j.jct.2012.11.032).
Numbers after ± are expanded uncertainties.

Experiment: xn = mol fraction of the nth substance listed
Conditions: 101 kPa, Liquid; for speed of sound: Sing-around technique in a fixed-path interferometer; for mass density: Vibrating tube method

CCCCCCCCCCCC[n+]1ccn(C)c1.[Cl-] [1-dodecyl-3-methylimidazolium chloride] + O
Conditions | mass density [kg/m3] | speed of sound [m/s]
283 K, x1 = 2.7e-05 | 999.688 ± 0.1 | –
283 K, x1 = 3e-05 | 999.704 ± 0.1 | –
283 K, x1 = 4.8e-05 | 999.71 ± 0.1 | –
283 K, x1 = 7.4e-05 | 999.71 ± 0.1 | –
283 K, x1 = 9.4e-05 | 999.705 ± 0.1 | –
283 K, x1 = 0.000109 | 999.71 ± 0.1 | –
283 K, x1 = 0.000129 | 999.718 ± 0.1 | –
283 K, x1 = 0.000145 | 999.717 ± 0.1 | –
283 K, x1 = 0.000163 | 999.735 ± 0.1 | –
283 K, x1 = 0.000181 | 999.724 ± 0.1 | –
283 K, x1 = 0.000208 | 999.73 ± 0.1 | –
283 K, x1 = 0.000234 | 999.729 ± 0.1 | –
283 K, x1 = 0.000248 | 999.744 ± 0.1 | –
283 K, x1 = 0.000273 | 999.743 ± 0.1 | –
283 K, x1 = 0.000286 | 999.744 ± 0.1 | –
283 K, x1 = 0.000302 | 999.732 ± 0.1 | –
283 K, x1 = 0.000319 | 999.749 ± 0.1 | –
283 K, x1 = 0.000341 | 999.737 ± 0.1 | –
283 K, x1 = 0.000384 | 999.728 ± 0.1 | –
283 K, x1 = 0.000407 | 999.721 ± 0.1 | –
283 K, x1 = 0.000428 | 999.712 ± 0.1 | –
283 K, x1 = 0.0027 | – | 1448.4 ± 1.2
283 K, x1 = 0.003 | – | 1448.5 ± 1.2
283 K, x1 = 0.0048 | – | 1448.8 ± 1.2
283 K, x1 = 0.0074 | – | 1449.3 ± 1.2
283 K, x1 = 0.0094 | – | 1449.7 ± 1.2
283 K, x1 = 0.0109 | – | 1449.9 ± 1.2
283 K, x1 = 0.0129 | – | 1450.2 ± 1.2
283 K, x1 = 0.0145 | – | 1450.5 ± 1.2
283 K, x1 = 0.0163 | – | 1450.8 ± 1.2
283 K, x1 = 0.0181 | – | 1451.2 ± 1.2
283 K, x1 = 0.0208 | – | 1451.7 ± 1.2
283 K, x1 = 0.0234 | – | 1452 ± 1.2
283 K, x1 = 0.0248 | – | 1452.2 ± 1.2
283 K, x1 = 0.0273 | – | 1452.6 ± 1.2
283 K, x1 = 0.0286 | – | 1452.7 ± 1.2
283 K, x1 = 0.0302 | – | 1452.8 ± 1.2
283 K, x1 = 0.0319 | – | 1453.1 ± 1.2
283 K, x1 = 0.0341 | – | 1453.5 ± 1.2
283 K, x1 = 0.0384 | – | 1453.5 ± 1.2
283 K, x1 = 0.0407 | – | 1453.7 ± 1.2
283 K, x1 = 0.0428 | – | 1453.7 ± 1.2
288 K, x1 = 2.7e-05 | 999.099 ± 0.1 | –
288 K, x1 = 3e-05 | 999.118 ± 0.1 | –
288 K, x1 = 4.8e-05 | 999.119 ± 0.1 | –
288 K, x1 = 7.4e-05 | 999.115 ± 0.1 | –
288 K, x1 = 9.4e-05 | 999.109 ± 0.1 | –
288 K, x1 = 0.000109 | 999.114 ± 0.1 | –
288 K, x1 = 0.000129 | 999.12 ± 0.1 | –
288 K, x1 = 0.000145 | 999.116 ± 0.1 | –
288 K, x1 = 0.000163 | 999.133 ± 0.1 | –
288 K, x1 = 0.000181 | 999.119 ± 0.1 | –
288 K, x1 = 0.000208 | 999.122 ± 0.1 | –
288 K, x1 = 0.000234 | 999.12 ± 0.1 | –
288 K, x1 = 0.000248 | 999.133 ± 0.1 | –
288 K, x1 = 0.000273 | 999.127 ± 0.1 | –
288 K, x1 = 0.000286 | 999.125 ± 0.1 | –
288 K, x1 = 0.000302 | 999.113 ± 0.1 | –
288 K, x1 = 0.000319 | 999.128 ± 0.1 | –
288 K, x1 = 0.000341 | 999.116 ± 0.1 | –
288 K, x1 = 0.000384 | 999.108 ± 0.1 | –
288 K, x1 = 0.000407 | 999.096 ± 0.1 | –
288 K, x1 = 0.000428 | 999.082 ± 0.1 | –
288 K, x1 = 0.0027 | – | 1466.7 ± 1.2
288 K, x1 = 0.003 | – | 1466.8 ± 1.2
288 K, x1 = 0.0048 | – | 1467.1 ± 1.2
288 K, x1 = 0.0074 | – | 1467.6 ± 1.2
288 K, x1 = 0.0094 | – | 1467.9 ± 1.2
288 K, x1 = 0.0109 | – | 1468.1 ± 1.2
288 K, x1 = 0.0129 | – | 1468.4 ± 1.2
288 K, x1 = 0.0145 | – | 1468.6 ± 1.2
288 K, x1 = 0.0163 | – | 1468.9 ± 1.2
288 K, x1 = 0.0181 | – | 1469.2 ± 1.2
288 K, x1 = 0.0208 | – | 1469.7 ± 1.2
288 K, x1 = 0.0234 | – | 1470 ± 1.2
288 K, x1 = 0.0248 | – | 1470.2 ± 1.2
288 K, x1 = 0.0273 | – | 1470.5 ± 1.2
288 K, x1 = 0.0286 | – | 1470.6 ± 1.2
288 K, x1 = 0.0302 | – | 1470.7 ± 1.2
288 K, x1 = 0.0319 | – | 1470.9 ± 1.2
288 K, x1 = 0.0341 | – | 1471 ± 1.2
288 K, x1 = 0.0384 | – | 1471 ± 1.2
288 K, x1 = 0.0407 | – | 1471.2 ± 1.2
288 K, x1 = 0.0428 | – | 1471.2 ± 1.2
293 K, x1 = 2.7e-05 | 998.213 ± 0.1 | –
293 K, x1 = 3e-05 | 998.232 ± 0.1 | –
293 K, x1 = 4.8e-05 | 998.233 ± 0.1 | –
293 K, x1 = 7.4e-05 | 998.224 ± 0.1 | –
293 K, x1 = 9.4e-05 | 998.217 ± 0.1 | –
293 K, x1 = 0.000109 | 998.222 ± 0.1 | –
293 K, x1 = 0.000129 | 998.227 ± 0.1 | –
293 K, x1 = 0.000145 | 998.219 ± 0.1 | –
293 K, x1 = 0.000163 | 998.236 ± 0.1 | –
293 K, x1 = 0.000181 | 998.221 ± 0.1 | –
293 K, x1 = 0.000208 | 998.22 ± 0.1 | –
293 K, x1 = 0.000234 | 998.218 ± 0.1 | –
293 K, x1 = 0.000248 | 998.227 ± 0.1 | –
293 K, x1 = 0.000273 | 998.218 ± 0.1 | –
293 K, x1 = 0.000286 | 998.214 ± 0.1 | –
293 K, x1 = 0.000302 | 998.2 ± 0.1 | –
293 K, x1 = 0.000319 | 998.213 ± 0.1 | –
293 K, x1 = 0.000341 | 998.199 ± 0.1 | –
293 K, x1 = 0.000384 | 998.191 ± 0.1 | –
293 K, x1 = 0.000407 | 998.175 ± 0.1 | –
293 K, x1 = 0.000428 | 998.16 ± 0.1 | –
293 K, x1 = 0.0027 | – | 1482.9 ± 1.2
293 K, x1 = 0.003 | – | 1483 ± 1.2
293 K, x1 = 0.0048 | – | 1483.3 ± 1.2
293 K, x1 = 0.0074 | – | 1483.7 ± 1.2
293 K, x1 = 0.0094 | – | 1484 ± 1.2
293 K, x1 = 0.0109 | – | 1484.2 ± 1.2
293 K, x1 = 0.0129 | – | 1484.5 ± 1.2
293 K, x1 = 0.0145 | – | 1484.7 ± 1.2
293 K, x1 = 0.0163 | – | 1485 ± 1.2
293 K, x1 = 0.0181 | – | 1485.2 ± 1.2
293 K, x1 = 0.0208 | – | 1485.6 ± 1.2
293 K, x1 = 0.0234 | – | 1485.9 ± 1.2
293 K, x1 = 0.0248 | – | 1486 ± 1.2
293 K, x1 = 0.0273 | – | 1486.3 ± 1.2
293 K, x1 = 0.0286 | – | 1486.4 ± 1.2
293 K, x1 = 0.0302 | – | 1486.5 ± 1.2
293 K, x1 = 0.0319 | – | 1486.6 ± 1.2
293 K, x1 = 0.0341 | – | 1486.7 ± 1.2
293 K, x1 = 0.0384 | – | 1486.7 ± 1.2
293 K, x1 = 0.0407 | – | 1486.9 ± 1.2
293 K, x1 = 0.0428 | – | 1486.9 ± 1.2
298 K, x1 = 0.0027 | – | 1497.1 ± 1.2
298 K, x1 = 0.003 | – | 1497.2 ± 1.2
298 K, x1 = 0.0048 | – | 1497.4 ± 1.2
298 K, x1 = 0.0074 | – | 1497.8 ± 1.2
298 K, x1 = 0.0094 | – | 1498.1 ± 1.2
298 K, x1 = 0.0109 | – | 1498.3 ± 1.2
298 K, x1 = 0.0129 | – | 1498.5 ± 1.2
298 K, x1 = 0.0145 | – | 1498.7 ± 1.2
298 K, x1 = 0.0163 | – | 1499 ± 1.2
298 K, x1 = 0.0181 | – | 1499.2 ± 1.2
298 K, x1 = 0.0208 | – | 1499.6 ± 1.2
298 K, x1 = 0.0234 | – | 1499.8 ± 1.2
298 K, x1 = 0.0248 | – | 1500 ± 1.2
298 K, x1 = 0.0273 | – | 1500.2 ± 1.2
298 K, x1 = 0.0286 | – | 1500.3 ± 1.2
298 K, x1 = 0.0302 | – | 1500.3 ± 1.2
298 K, x1 = 0.0319 | – | 1500.5 ± 1.2
298 K, x1 = 0.0341 | – | 1500.5 ± 1.2
298 K, x1 = 0.0384 | – | 1500.5 ± 1.2
298 K, x1 = 0.0407 | – | 1500.7 ± 1.2
